Source: US20230102379A1 (priority 2020, published 2023)
“Also recorded” adds a separate entry of the source. Where two headings read alike, the source gives them in different places.

How the values were obtained:
Xylella fastidiosa = assay type: cell-based; conditions: for diameter of inhibition: highest dose tested (2.12 μmol)
L. crescens [1] = assay type: cell-based, Liberibacter crescens
L. crescens [2] = conditions: cited from earlier work
Xf = conditions: cited from earlier work
E. coli [3] = conditions: agar diffusion; cited from earlier work
Bacillus megaterium = conditions: agar diffusion; cited from earlier work
Vibrio harveyi = conditions: cited from earlier work
E. coli [4] = conditions: cited from earlier work
Micrococcus luteus = conditions: cited from earlier work
MRSA = conditions: cited from earlier work
[5] = system: transcriptional accessory protein; conditions: cited from earlier work

## C/C=C/c1cc(O)cc(=O)o1 [Compound 5, (E)-4-hydroxy-6-(prop-1-en-1-yl)-2H-pyran-2-one]
other
  melting point: 183 to 185 °C
Xylella fastidiosa
  inhibition of Xf (in words): inactive
L. crescens [1]; highest dose
  diameter of inhibition: 2.6 cm
L. crescens [1]; lower doses
  diameter of inhibition: 0.2 cm

## CC1(C)S[C@@H]2[C@H](NC(=O)COc3ccccc3)C(=O)N2[C@H]1C(=O)O [penicillin V]
L. crescens [2]
  concentration providing nearly complete inhibition of L. crescens: 0.1 µM

## C/C=C/c1cc2c(c(=O)o1)C(=O)CC(C)O2 (single isomer, unassigned; (+)) [(+)-2, (+)-deoxyradicinin]
L. crescens [1]
  inhibition of L. crescens (in words): potently inhibit

## C/C=C/c1cc2c(c(=O)o1)C(=O)CC(C)O2 (racemic) [Compound 2, (E)-2-methyl-7-(prop-1-en-1-yl)-2,3-dihydropyrano[4,3-b]pyran-4,5-dione]
Xylella fastidiosa
  inhibition of Xf (in words): consistent, somewhat linear relationship between compound dose and antibacterial response; also recorded: more potent than 1; also recorded: potent inhibitor
Xylella fastidiosa; listed as deoxyradicinin
  inhibition of Xf (in words): low micromolar inhibitor
L. crescens [1]
  inhibition of L. crescens (in words): notable linear relationships between compound dose and antibacterial response; also recorded: most potent inhibitor of L. crescens tested; also recorded: potently inhibit; also recorded: potent inhibitor
L. crescens [1]; dose 1.06 μmol and higher
  inhibition of L. crescens (in words): complete inhibition
L. crescens [1]; listed as deoxyradicinin
  inhibition of L. crescens (in words): nanomolar inhibitor
L. crescens [1]; lowest tested dose of 0.053 μmol
  diameter of inhibition: 4.0 cm

## CCCc1cc2c(c(=O)o1)C(=O)CC(C)O2 (racemic) [Compound 3, 2-methyl-7-propyl-2,3-dihydropyrano[4,3-b]pyran-4,5-dione]
Xylella fastidiosa
  dose at which activity is shown: greater than 0.53 μmol
  diameter of inhibition: 3.4 cm
L. crescens [1]
  inhibition of L. crescens (in words): notable linear relationships between compound dose and antibacterial response

## C/C=C/C(=O)n1nnc2ccccc21
other
  melting point: 91 to 93 °C

## C/C=C/c1cc2c(c(=O)o1)C(=O)C[C@H](C)O2 (single isomer, unassigned) [(−)-2, (−)-deoxyradicinin]
L. crescens [1]
  inhibition of L. crescens (in words): potently inhibit

## C/C=C/c1cc2c(c(=O)o1)C(=O)[C@@H](O)[C@H](C)O2 [Compound 1, radicinin]
Xf
  inhibition of Xf in vitro (in words): inhibitor of Xf in vitro
Xylella fastidiosa
  inhibition of Xf (in words): consistent, somewhat linear relationship between compound dose and antibacterial response
  diameter of inhibition: 10 cm
L. crescens [1]
  inhibition of L. crescens (in words): notable linear relationships between compound dose and antibacterial response

## CO/N=C(\C(=O)N[C@@H]1C(=O)N2C(C(=O)O)=C(COC(C)=O)CS[C@H]12)c1csc(N)n1 [cefotaxime]
L. crescens [2]
  concentration providing nearly complete inhibition of L. crescens: 0.7 µM

## C/C=C/C(=O)c1c(O)cc(/C=C/C)oc1=O [Compound 4, 3-((E)-but-2-enoyl)-4-hydroxy-6-((E)-prop-1-en-1-yl)-2H-pyran-2-one]
L. crescens [1]
  inhibition of L. crescens (in words): notable linear relationships between compound dose and antibacterial response

## CC(CCCCCCCCCCCCCCO[C@@H]1O[C@H](CO)[C@@H](O)[C@H](O)[C@@H]1O)C(O)=C1C(=O)C(C)N(C)C1=O (stereo partly shown) [Compound 24, epicoccamide A]
E. coli [3]
  antibiotic activity (in words): no detectable antibiotic activity
Bacillus megaterium
  antibiotic activity (in words): no detectable antibiotic activity
Vibrio harveyi
  antibacterial activity (in words): modest antibacterial activity
E. coli [4]
  antibacterial activity (in words): modest antibacterial activity
Micrococcus luteus
  antibacterial activity (in words): modest antibacterial activity
MRSA
  antibacterial activity (in words): modest antibacterial activity

## O=C1CCC(c2ccc(O)c3c2C(=O)C2OC2C3O)c2cccc(O)c21 (stereo not shown) [Compound 21, cladosporol A]
Vibrio harveyi
  antibacterial activity (in words): modest antibacterial activity
E. coli [4]
  antibacterial activity (in words): modest antibacterial activity
Micrococcus luteus
  antibacterial activity (in words): modest antibacterial activity
MRSA
  antibacterial activity (in words): modest antibacterial activity

## Cc1c(Cl)cccc1Nc1ccccc1C(=O)O [Tolfenamic acid]
[5]
  inhibition of transcriptional accessory protein (in words): inhibits a transcriptional accessory protein
